Data taken from patent US20240308998A1, “PYRROLOPYRIDONE DERIVATIVES USEFUL IN THE TREATMENT OF CANCER” (Tay Therapeutics Limited, priority 2021, published 2024).

Tests used:
BRD4 BD2 = target: T1, BRD4 BD2 (Homo sapiens, UniProt O60885); experiment: NanoBRET bromodomain assay, BRD4 BD2; assay type: cell-based; settings: for Fold selectivity BRD4 BD1/BD2: IC50 BD1/IC50 BD2; for IC50: NanoBRET, HEK293 cells transfected with NanoLuc-BRD4-BD2
T1 construct: HEK293 cells were transfected using NanoLuc-BRD4-BD1 or NanoLuc-BRD4-BD2 fusion vectors; host or cells: HEK293
Experimental: (§1) HEK293 cells were transfected using NanoLuc-BRD4-BD1 or NanoLuc-BRD4-BD2 fusion vectors and incubated at 37° C. in an atmosphere of 5% CO2 for 20-24 hours. The transfected cells were then dispensed into 96-well plates using 90 μl cell suspension per well containing 2×10^5 cells/ml in Opti-MEM and 1x final concentration of tracer. 90 μl per well of cell suspension without tracer was also dispensed into at least 3 wells as “No tracer control samples” for background correction. Serially diluted test compounds were prepared at 1000× concentration in DMSO and further diluted to 10× concentration in Opti-MEM. 10 μl per well of the serially diluted 10× test compound was added to the 96-well plates containing cells with 1x tracer. Plates were then incubated at 37° C.+5% C02 incubator for 2 hours. Immediately prior to BRET measurements, a 3x solution consisting of 1:166 dilution of Nano-Glo® Substrate plus a 1:500 dilution of Extracellular NanoLuc Inhibitor in Opti-MEM was prepared and 50 μl per well was added to the cells. Donor emission (450 nm) and acceptor emission (610 nm) were measured using PHERAstar (BMG LabTech). For data analysis, the raw BRET ratio was generated and converted to milliBRET units with background correction using the formula: [(Acceptorsample/Donorsample)−(Acceptorno tracer control/Donorno tracer control)]×1000. The mBU data was plotted as a function of compound concentration and IC50s for BRET assay were determined by nonlinear regression analysis of concentration response curves using the GraphPad Prism software.
Fold Selectivity Calculated (IC50 BD1/IC50 BD2).

BRD4 BD1 = target: T2, BRD4 BD1 (Homo sapiens, UniProt O60885); experiment: NanoBRET bromodomain assay, BRD4 BD1; assay type: cell-based; settings: HEK293 cells transfected with NanoLuc-BRD4-BD1
T2 construct: HEK293 cells were transfected using NanoLuc-BRD4-BD1 or NanoLuc-BRD4-BD2 fusion vectors; host or cells: HEK293
Experimental: as §1

| Fold selectivity BRD4 BD1/BD2 (BRD4 BD2) | IC50 (BRD4 BD2) [nM] | IC50 (BRD4 BD1) [nM] | Structure (SMILES) |
| --- | --- | --- | --- |
| xxx (Fold >200) | ≤ 50 | > 1000 | CC#Cc1cn(C)c(=O)cc1-c1cn(C)c(=O)c2[nH]c(-c3cc(C)nc(C)c3)cc12 [Example 58, 4-[2-(2,6-dimethylpyridin-4-yl)-6-methyl-7-oxo-1H-pyrrolo[2,3-c]pyridin-4-yl]-1-methyl-5-(prop-1-yn-1-yl)pyridin-2-one] |
| xx (Fold >50 and ≤200) | 50 to 200 | > 1000 | Cc1cccc(C)c1Oc1cn(C2CNC2)c(=O)cc1-c1cn(C)c(=O)c2[nH]c(-c3cn(C(C)C)nc3C)cc12 [Example 42, 4-(1-(azetidin-3-yl)-5-(2,6-dimethylphenoxy)-2-oxo-1,2-dihydropyridin-4-yl)-2-(1-isopropyl-3-methyl-1H-pyrazol-4-yl)-6-methyl-1,6-dihydro-7H-pyrrolo[2,3-c]pyridin-7-one] |
| xx (Fold >50 and ≤200) | 50 to 200 | > 1000 | Cc1cccc(C)c1Oc1cn(C2COC2)c(=O)cc1-c1cn(C)c(=O)c2[nH]c(-c3ccccc3F)cc12 [Example 41, 4-(5-(2,6-dimethylphenoxy)-1-(oxetan-3-yl)-2-oxo-1,2-dihydropyridin-4-yl)-2-(2-fluorophenyl)-6-methyl-1,6-dihydro-7H-pyrrolo[2,3-c] pyridin-7-one] |
| x (Fold >2 and ≤50) | ≤ 50 | 50 to 500 | Cn1cc(C2CCCC2)c(-c2cn(C)c(=O)c3[nH]c(-c4ccccc4)cc23)cc1=O [Example 55, 5-cyclopentyl-1-methyl-4-{6-methyl-7-oxo-2-phenyl-1H-pyrrolo[2,3-c]pyridin-4-yl}pyridin-2-one] |
| x (Fold >2 and ≤50) | ≤ 50 | 50 to 500 | Cc1cc(-c2cc3c(-c4cc(=O)n(C)cc4C4CCCC4)cn(C)c(=O)c3[nH]2)n(C)n1 [Example 52, 5-cyclopentyl-4-[2-(2,5-dimethylpyrazol-3-yl)-6-methyl-7-oxo-1H-pyrrolo[2,3-c]pyridin-4-yl]-1-methylpyridin-2-one] |
| x (Fold >2 and ≤50) | ≤ 50 | 50 to 500 | C#Cc1cn(C)c(=O)cc1-c1cn(C)c(=O)c2[nH]c(-c3cnn(C(C)C)c3)cc12 [Example 56, 5-ethynyl-4-[2-(1-isopropylpyrazol-4-yl)-6-methyl-7-oxo-1H-pyrrolo[2,3-c]pyridin-4-yl]-1-methylpyridin-2-one] |
| x (Fold >2 and ≤50) | ≤ 50 | 50 to 500 | CC#Cc1cn(C)c(=O)cc1-c1cn(C)c(=O)c2[nH]c(-c3cnn(C(C)C)c3)cc12 [Example 57, 4-[2-(1-isopropylpyrazol-4-yl)-6-methyl-7-oxo-1H-pyrrolo[2,3-c]pyridin-4-yl]-1-methyl-5-(prop-1-yn-1-yl)pyridin-2-one] |
| xx (Fold >50 and ≤200) | 50 to 200 | > 1000 | Cc1cccc(C)c1Oc1cn(C)c(=O)cc1-c1cn(C)c(=O)c2[nH]c(-c3c(F)cccc3F)cc12 [Example 37, 2-(2,6-difluorophenyl)-4-(5-(2,6-dimethylphenoxy)-1-methyl-2-oxo-1,2-dihydropyridin-4-yl)-6-methyl-1,6-dihydro-7H-pyrrolo[2,3-c] pyridin-7-one] |
| x (Fold >2 and ≤50) | ≤ 50 | 50 to 500 | Cc1cccc(C)c1Oc1cn(C2COC2)c(=O)cc1-c1cn(C)c(=O)c2[nH]c(-c3cnn(C)c3C)cc12 [Example 40, 2-(1,5-dimethyl-1H-pyrazol-4-yl)-4-(5-(2,6-dimethylphenoxy)-1-(oxetan-3-yl)-2-oxo-1,2-dihydropyridin-4-yl)-6-methyl-1,6-dihydro-7H-pyrrolo[2,3-c] pyridin-7-one] |
| xxx (Fold >200) | ≤ 50 | > 1000 | Cc1cccc(C)c1Oc1cn(C)c(=O)cc1-c1cn(C)c(=O)c2[nH]c(-c3cc(C(F)(F)F)ccc3F)cc12 [Example 34, 4-(5-(2,6-dimethylphenoxy)-1-methyl-2-oxo-1,2-dihydropyridin-4-yl)-2-(2-fluoro-5-(trifluoromethyl)phenyl)-6-methyl-1,6-dihydro-7H-pyrrolo[2,3-c] pyridin-7-one] |
| xx (Fold >50 and ≤200) | ≤ 50 | 50 to 500 | Cc1cc(-c2cc3c(-c4cc(=O)n(C)cc4C4CCCC4)cn(C)c(=O)c3[nH]2)cc(C)n1 [Example 54, 5-cyclopentyl-4-[2-(2,6-dimethylpyridin-4-yl)-6-methyl-7-oxo-1H-pyrrolo[2,3-c]pyridin-4-yl]-1-methylpyridin-2-one] |
| x (Fold >2 and ≤50) | > 1000 | > 1000 | Cc1cccc(C)c1Oc1cn(C2CNC2)c(=O)cc1-c1cn(C)c(=O)c2[nH]c(-c3cnn(C(C)C)c3C)cc12 [Example 43, 4-(1-(azetidin-3-yl)-5-(2,6-dimethylphenoxy)-2-oxo-1,2-dihydropyridin-4-yl)-2-(1-isopropyl-5-methyl-1H-pyrazol-4-yl)-6-methyl-1,6-dihydro-7H-pyrrolo[2,3-c] pyridin-7-one] |
| xxx (Fold >200) | ≤ 50 | > 1000 | Cc1cc(-c2cc3c(-c4cc(=O)n(C)cc4Oc4c(C)cccc4C)cn(C)c(=O)c3[nH]2)ncn1 [Example 38, 4-(5-(2,6-dimethylphenoxy)-1-methyl-2-oxo-1,2-dihydropyridin-4-yl)-6-methyl-2-(6-methylpyrimidin-4-yl)-1,6-dihydro-7H-pyrrolo[2,3-c] pyridin-7-one] |
| xx (Fold >50 and ≤200) | ≤ 50 | 50 to 500 | CC(C)n1cc(-c2cc3c(-c4cc(=O)n(C)cc4C4CCCC4)cn(C)c(=O)c3[nH]2)cn1 [Example 53, 4-(5-cyclopentyl-1-methyl-2-oxo-1,2-dihydropyridin-4-yl)-2-(1-isopropyl-1H-pyrazol-4-yl)-6-methyl-1,6-dihydro-7H-pyrrolo[2,3-c]pyridin-7-one] |
| x (Fold >2 and ≤50) | ≤ 50 | 500 to 1000 | Cc1cc(-c2cc3c(-c4cc(=O)n(C)cc4Oc4c(C)cccc4C)cn(C)c(=O)c3[nH]2)ccn1 [Example 45, 4-(5-(2,6-dimethylphenoxy)-1-methyl-2-oxo-1,2-dihydropyridin-4-yl)-6-methyl-2-(2-methylpyridin-4-yl)-1,6-dihydro-7H-pyrrolo[2,3-c]pyridin-7-one] |
| xx (Fold >50 and ≤200) | 50 to 200 | > 1000 | Cc1cccc(C)c1Oc1cn(C)c(=O)cc1-c1cn(C)c(=O)c2[nH]c(-c3ncccn3)cc12 [Example 39, 4-(5-(2,6-dimethylphenoxy)-1-methyl-2-oxo-1,2-dihydropyridin-4-yl)-6-methyl-2-(pyrimidin-2-yl)-1,6-dihydro-7H-pyrrolo[2,3-c] pyridin-7-one] |
| xxx (Fold >200) | ≤ 50 | > 1000 | Cc1cccc(C)c1Oc1cn(C)c(=O)cc1-c1cn(C)c(=O)c2[nH]c(-c3cc(F)ccc3F)cc12 [Example 46, 2-(2,5-difluorophenyl)-4-(5-(2,6-dimethylphenoxy)-1-methyl-2-oxo-1,2-dihydropyridin-4-yl)-6-methyl-1,6-dihydro-7H-pyrrolo[2,3-c]pyridin-7-one] |
| x (Fold >2 and ≤50) | ≤ 50 | > 1000 | Cc1cccc(C)c1Oc1cn(C)c(=O)cc1-c1cn(C)c(=O)c2[nH]c(-c3cnn(CS(C)(=O)=O)c3)cc12 [Example 65, 4-(5-(2,6-dimethylphenoxy)-1-methyl-2-oxo-1,2-dihydropyridin-4-yl)-6-methyl-2-(1-((methylsulfonyl)methyl)-1H-pyrazol-4-yl)-1,6-dihydro-7H-pyrrolo[2,3-c]pyridin-7-one] |
| xxx (Fold >200) | ≤ 50 | > 1000 | Cc1cccc(C)c1Oc1cn(C)c(=O)cc1-c1cn(C)c(=O)c2[nH]c(-c3ccccc3C#N)cc12 [Example 48, 2-{4-[5-(2,6-dimethylphenoxy)-1-methyl-2-oxopyridin-4-yl]-6-methyl-7-oxo-1H-pyrrolo[2,3-c]pyridin-2-yl}benzonitrile] |
| xx (Fold >50 and ≤200) | 50 to 200 | > 1000 | Cc1cccc(C)c1Oc1cn(C)c(=O)cc1-c1cn(C)c(=O)c2[nH]c(-c3ccnnc3)cc12 [Example 27, 4-(5-(2,6-dimethylphenoxy)-1-methyl-2-oxo-1,2-dihydropyridin-4-yl)-6-methyl-2-(pyridazin-4-yl)-1,6-dihydro-7H-pyrrolo[2,3-c] pyridin-7-one] |
